Measured values as given in patent US9499550B2 (BRISTOL-MYERS SQUIBB COMPANY, priority 2012, dated 2016).
Read-outs that look alike come from different tables or passages of the source.

How the values were obtained:
[1] = test system: HCV genotype 1a (H77 strain) replicon in HUH-7 cells; experiment: HCV replicon luciferase reporter assay, genotype 1a; assay type: cell-based; details: Hepatitis C virus, Huh-7, 72 h, 3 days incubation, read-out: LE_1a (EC50, range)
In short: (§1)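 Replicon inhibition for both genotypes was measured as Renilla luciferase signal (EnduRen, 7.5 μM final, 2 h) after 3-day, 37° C exposure of replicon-bearing HUH-7 cells in 4% FCS DMEM, 0.5% DMSO. The 1b construct carries S1179I; the 1a H77 construct carries P1496L and S2204I. Twenty-point, 3-fold dilutions were fitted four-parametrically for EC50, and CC50 was taken from multiplexed Cell Titer-Blue.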

[2] = test system: HCV genotype 1b (Con1) replicon in HUH-7 cells; experiment: HCV replicon luciferase reporter assay, genotype 1b; assay type: cell-based; details: Hepatitis C virus, Huh-7, 72 h, 3 days incubation, read-out: LE_1b (EC50, range)
In short: as §1

[3] = HCV genotype 1a replicon luciferase
[4] = HCV genotype 1b replicon luciferase
[5] = HCV genotype 1a replicon luciferase assay, range class
[6] = HCV genotype 1b replicon luciferase assay, range class

| SMILES | EC50 [1, 3] [nM] | EC50 [2, 4] [nM] | EC50 [1, 5] [nM] | EC50 [2, 6] [nM] | also measured |
| --- | --- | --- | --- | --- | --- |
| CC[C@@H]1C[C@H](C)CC/C=C\[C@@H]2C[C@@]2(C(=O)NS(=O)(=O)C2(C)CC2)NC(=O)[C@@H]2C[C@@H](Oc3nccc4c5c(ccc34)CCCO5)CN2C(=O)[C@H]1NC(=O)OC(C)(C)C(F)(F)F [Compound 6062, 1,1,1-trifluoro-2-methylpropan-2-yl((2R,6S,7R,9R,13aS,14aR,16aS,Z)-2-((3,4-dihydro-2H-pyrano[2,3-f]isoquinolin-7-yl)oxy)-7-ethyl-9-methyl-14a-(((1-methylcyclopropyl)sulfonyl)carbamoyl)-5,16-dioxo-1,2,3,5,6,7,8,9,10,11,13a,14,14a,15,16,16a-hexadecahydrocyclopropa[e]pyrrolo[1,2-a][1,4]diazacyclopentadecin-6-yl)carbamate] | 1.01 to 5 | 0.51 to 1 | – | – | – |
| CCOc1ccc2c(O[C@@H]3C[C@H]4C(=O)N[C@]5(C(=O)NS(=O)(=O)C6(C)CC6)C[C@H]5/C=C\CC[C@@H](C)C[C@@H](C)[C@H](NC(=O)OC(C)(C)C(F)(F)F)C(=O)N4C3)ncc(OC)c2c1 [Compound 3140, 1,1,1-trifluoro-2-methylpropan-2-yl((2R,6S,7R,9R,13aS,14aR,16aS,Z)-2-((6-ethoxy-4-methoxyisoquinolin-1-yl)oxy)-7,9-dimethyl-14a-(((1-methylcyclopropyl)sulfonyl)carbamoyl)-5,16-dioxo-1,2,3,5,6,7,8,9,10,11,13a,14,14a,15,16,16a-hexadecahydrocyclopropa[e]pyrrolo[1,2-a][1,4]diazacyclopentadecin-6-yl)carbamate] | – | – | < 5.46 | < 5.46 | – |
| CCCOc1cc2c(Cl)cccc2c(O[C@@H]2C[C@H]3C(=O)N[C@]4(C(=O)NS(=O)(=O)C5(C)CC5)C[C@H]4/C=C\CC[C@@H](C)C[C@@H](C)[C@H](NC(=O)OC(C)(C)C(F)(F)F)C(=O)N3C2)n1 [Compound 1078, 1,1,1-trifluoro-2-methylpropan-2-yl((2R,6S,7R,9R,13aS,14aR,16aS,Z)-2-((5-chloro-3-propoxyisoquinolin-1-yl)oxy)-7,9-dimethyl-14a-(((1-methylcyclopropyl)sulfonyl)carbamoyl)-5,16-dioxo-1,2,3,5,6,7,8,9,10,11,13a,14,14a,15,16,16a-hexadecahydrocyclopropa[e]pyrrolo[1,2-a][1,4]diazacyclopentadecin-6-yl)carbamate] | – | – | < 5.46 | < 5.46 | – |
| CCOc1cnc(O[C@@H]2C[C@H]3C(=O)N[C@]4(C(=O)NS(=O)(=O)C5(F)CC5)C[C@H]4/C=C\CC[C@@H](C)C[C@@H](C)[C@H](NC(=O)OC(C)(C)C)C(=O)N3C2)c2ccccc12 [Compound 4053, tert-butyl (2R,6S,7R,9R,13aS,14aR,16aS,Z)-2-(4-ethoxyisoquinolin-1-yloxy)-14a-(1-fluorocyclopropylsulfonylcarbamoyl)-7,9-dimethyl-5,16-dioxo-1,2,3,5,6,7,8,9,10,11,13a,14,14a,15,16,16a-hexadecahydrocyclopropa[e]pyrrolo[1,2-a][1,4]diazacyclopentadecin-6-ylcarbamate] | < 5.46 | < 5.46 | – | – | – |
| COc1ccc2c(O[C@@H]3C[C@H]4C(=O)N[C@]5(C(=O)NS(=O)(=O)C6CC6)C[C@H]5/C=C\CC[C@H](C)C[C@@H](C)[C@H](NC(=O)NC(C)(C)C)C(=O)N4C3)nc(-c3ccc(OC(C)C)cn3)cc2c1 [Compound 5210, (2R,6S,7R,9S,13aS,14aR,16aS,Z)-6-(3-(tert-butyl)ureido)-N-(cyclopropylsulfonyl)-2-((3-(5-isopropoxypyridin-2-yl)-6-methoxyisoquinolin-1-yl)oxy)-7,9-dimethyl-5,16-dioxo-1,2,3,5,6,7,8,9,10,11,13a,14,14a,15,16,16a-hexadecahydrocyclopropa[e]pyrrolo[1,2-a][1,4]diazacyclopentadecine-14a-carboxamide] | < 5.46 | < 5.46 | – | – | – |
| C[C@H]1CC/C=C\[C@@H]2C[C@@]2(C(=O)NS(=O)(=O)C2CC2)NC(=O)[C@@H]2C[C@@H](Oc3nccc4c5c(ccc34)OC(F)(F)O5)CN2C(=O)[C@@H](NC(=O)O[C@H](C)C(F)(F)F)[C@H](C)C1 [Compound 5269, (R)-1,1,1-trifluoropropan-2-yl ((2R,6S,7R,9S,13aS,14aR,16aS,Z)-14a-((cyclopropylsulfonyl)carbamoyl)-2((2,2-difluoro-[1,3]dioxolo[4,5-f]isoquinolin-6-yl)oxy)-7,9-dimethyl-5,16-dioxo-1,2,3,5,6,7,8,9,10,11,13a,14,14a,15,16,16a-hexadecahydrocyclopropa[e]pyrrolo[1,2-a][1,4]diazacyclopentadecin-6-yl)carbamate] | 4.82 to 103 | 4.82 to 103 | – | – | – |
| C[C@@H]1CC/C=C\[C@@H]2C[C@@]2(C(=O)NS(=O)(=O)C2(C)CC2)NC(=O)[C@@H]2C[C@@H](Oc3nc4c(c5ccccc35)CCCO4)CN2C(=O)[C@@H](NC(=O)OC(C)(C)C(C)(F)F)[C@H](C)C1 [Compound 6048, 3,3-difluoro-2-methylbutan-2-yl((2R,6S,7R,9R,13aS,14aR,16aS,Z)-2-((2,3-dihydro-1H-pyrano[2,3-c]isoquinolin-6-yl)oxy)-7,9-dimethyl-14a-(((1-methylcyclopropyl)sulfonyl)carbamoyl)-5,16-dioxo-1,2,3,5,6,7,8,9,10,11,13a,14,14a,15,16,16a-hexadecahydrocyclopropa[e]pyrrolo[1,2-a][1,4]diazacyclopentadecin-6-yl)carbamate] | 1.01 to 5 | 0.1 to 0.5 | – | – | – |
| COc1ccc2c(O[C@@H]3C[C@H]4C(=O)N[C@]5(C(=O)NS(=O)(=O)C6CC6)C[C@H]5/C=C\CC[C@@H](C)C[C@@H](C)[C@H](NC(=O)OC(C)(C)C(F)(F)F)C(=O)N4C3)nccc2c1 [Compound 7, 1,1,1-trifluoro-2-methylpropan-2-yl((2R,6S,7R,9R,13aS,14aR,16aS,Z)-14a-((cyclopropylsulfonyl)carbamoyl)-2-((6-methoxyisoquinolin-1-yl)oxy)-7,9-dimethyl-5,16-dioxo-1,2,3,5,6,7,8,9,10,11,13a,14,14a,15,16,16a-hexadecahydrocyclopropa[e]pyrrolo[1,2-a][1,4]diazacyclopentadecin-6-yl)carbamate] | – | – | < 5.46 | < 5.46 | – |
| COCCn1nc(O[C@@H]2C[C@H]3C(=O)N[C@]4(C(=O)NS(=O)(=O)C5(C)CC5)C[C@H]4/C=C\CC[C@@H](C)C[C@@H](C)[C@H](NC(=O)OC(C)(C)C(C)(F)F)C(=O)N3C2)c2ccccc2c1=O [Compound 1020, 3,3-difluoro-2-methylbutan-2-yl((2R,6S,7R,9R,13aS,14aR,16aS,Z)-2-((3-(2-methoxyethyl)-4-oxo-3,4-dihydrophthalazin-1-yl)oxy)-7,9-dimethyl-14a-(((1-methylcyclopropyl)sulfonyl)carbamoyl)-5,16-dioxo-1,2,3,5,6,7,8,9,10,11,13a,14,14a,15,16,16a-hexadecahydrocyclopropa[e]pyrrolo[1,2-a][1,4]diazacyclopentadecin-6-yl)carbamate] | – | – | 4.82 to 103 | 4.82 to 103 | – |
| CC[C@@H]1C[C@@H](C)CC/C=C\[C@@H]2C[C@@]2(C(=O)NS(=O)(=O)C2CC2)NC(=O)[C@@H]2C[C@@H](Oc3nccc4c5c(ccc34)N(C)CCO5)CN2C(=O)[C@H]1NC(=O)O[C@@H]1C[C@@H]2C[C@@H]2C1 [Compound 5313, (1R,3r,5 S)-bicyclo[3.1.0]hexan-3-yl((2R,6S,7R,9S,13aS,14aR,16aS,Z)-14a-((cyclopropylsulfonyl)carbamoyl)-7-ethyl-9-methyl-2-((4-methyl-3,4-dihydro-2H-[1,4]oxazino[2,3-f]isoquinolin-7-yl)oxy)-5,16-dioxo-1,2,3,5,6,7,8,9,10,11,13a,14,14a,15,16,16a-hexadecahydrocyclopropa[e]pyrrolo[1,2-a][1,4]diazacyclopentadecin-6-yl)carbamate] | < 5.46 | < 5.46 | – | – | – |
| COc1ccc2c(O[C@@H]3C[C@H]4C(=O)N[C@]5(C(=O)NS(=O)(=O)C6CC6)C[C@H]5/C=C\CC[C@@H](C)C[C@@H](C)[C@H](NC(=O)OC(C)(C)C(F)(F)F)C(=O)N4C3)ncnc2c1 [Compound 4034] | – | – | – | – | EC50 ([1]; GETYPE1A, HCV genotype 1a replicon luciferase): < 5.46 nM; EC50 ([2]; GETYPE1B, HCV genotype 1b replicon luciferase): < 5.46 nM |
| C[C@@H]1CC/C=C\[C@@H]2C[C@@]2(C(=O)NS(=O)(=O)C2(C)CC2)NC(=O)[C@@H]2C[C@@H](Oc3nc(OCC(F)F)cc4c(Cl)cccc34)CN2C(=O)[C@@H](NC(=O)OC(C)(C)C(C)(F)F)[C@H](C)C1 [Compound 1110, 3,3-difluoro-2-methylbutan-2-yl((2R,6S,7R,9R,13aS,14aR,16aS,Z)-2-((5-chloro-3-(2,2-difluoroethoxyl)isoquinolin-1-yl)oxy)-7,9-dimethyl-14a-(((1-methylcyclopropyl)sulfonyl)carbamoyl)-5,16-dioxo-1,2,3,5,6,7,8,9,10,11,13a,14,14a,15,16,16a-hexadecahydrocyclopropa[e]pyrrolo[1,2-a][1,4]diazacyclopentadecin-6-yl)carbamate] | – | – | < 5.46 | < 5.46 | – |
| CC[C@@H]1C[C@H](C)CC/C=C\[C@@H]2C[C@@]2(C(=O)NS(=O)(=O)C2(C)CC2)NC(=O)[C@@H]2C[C@@H](Oc3ncc(OC)c4cc(OC)ccc34)CN2C(=O)[C@H]1NC(=O)OC(C)(C)C [Compound 4196, tert-butyl (2R,6S,7R,9R,13aS,14aR,16aS,Z)-2-(4,6-dimethoxyisoquinolin-1-yloxy)-7-ethyl-9-methyl-14a-(1-methylcyclopropylsulfonylcarbamoyl)-5,16-dioxo-1,2,3,5,6,7,8,9,10,11,13a,14,14a,15,16,16a-hexadecahydrocyclopropa[e]pyrrolo[1,2-a][1,4]diazacyclopentadecin-6-ylcarbamate] | < 5.46 | < 5.46 | – | – | – |
